Measurements reported in patent US20110160399A1, “HISTONE MODIFICATION INHIBITOR SPECIFIC TO TARGET GENE” (NIHON UNIVERSITY, priority 2008, published 2011).

Tests used:
[1] = tested on: acetylation of histone H3 lysine 9 in the genomic region of the LARP1 gene; experiment: Genomic region-specific acetylation analysis (ChIP, anti-histone H3K9 acetyl antibody), LARP1 gene region; type: cell-based, human; conditions: HeLa cells, 150 nM, 7 days; FIG. 10
Protocol: In a 10% fetal bovine serum-containing DMEM medium prepared to contain the synthesized compound (SAHA+p16 PIP or SAHA+non-targeting PIP) or SAHA at a final concentration of 150 nM, HeLa cells were cultured at 37° C. in the presence of 5% CO2 for 7 days. After culture, 5×10^6 to 1×10^7 confluent cells were harvested in 100 mm diameter cell culture dishes (Corning 430167) and then subjected to chromatin immunoprecipitation assay with a MILIPORE 17-295 Chromatin Immunoprecipitation (ChIP) assay kit.
The detailed procedures used are as follows. To the harvested cells cultured for 7 days, formalin was added at a final concentration of 1% and incubated at 37° C. for 10 minutes to fix the cells, whereby proteins and DNAs were crosslinked within the cells. Then, glycine was added at a final concentration of 0.25 M and the supernatant was removed, followed by washing the cell layer. Then, the cell layer was treated with 220 μl lysis buffer and the cell lysate was collected with a scraper. […] Real-time RT-PCR.” More specifically, the purified DNA was quantitatively analyzed with SYBR premix EX Taq (TAKARA BIO, Shiga, Japan) in a Thermal Cycler Dice Real-time System TP-800 (TAKARA BIO, Shiga, Japan). […]

[2] = tested on: LOVO (human large bowel cancer cell line); experiment: Cell proliferation assay (WST-8) on LOVO cells; type: cell-based; conditions: 72 hours
Protocol: Next, the synthesized compounds were verified by WST-8 assay for their ability to suppress cancer cell proliferation.
Cell lines of HeLa (human uterine cervical cancer cell line), LOVO, RKO and SW480 (each of which was a human large bowel cancer cell line) were each cultured at 37° C. under 5% carbon dioxide conditions using Dulbecco's modified Eagle's medium (DMEM, Nacalai Tesque, Inc., Japan) supplemented with 10% fetal bovine serum (FBS: JRH bioscience, USA), antibiotics (50 U/ml penicillin and 50 μg/ml streptomycin) and 1 mM sodium pyruvate. […]
Each cell line seeded at 3×10^3 cells/well in a MICROTEST tissue culture plate (96 well, FALCON) was cultured at 37° C. under 5% carbon dioxide conditions for 24 hours, and then cultured in the presence of various concentrations of PI polyamide for an additional 72 hours. After completion of the culture, 10 μl of viable cell counting reagent SF (Nacalai Tesque, Inc., Japan) was added to each well and the absorbance at 450 nm was measured by ARVO EX (PerkinElmer). During the period from reagent addition until assay, incubation was continued at 37° C. in the presence of 5% CO2 until the absorbance reached about 1.2 to 2.0 in the control sample where only 50% DMSO was added to the cells.

[3] = tested on: p16 gene expression (p16 RNA); experiment: Real-time RT-PCR of p16 gene expression in HeLa cells; type: cell-based, human; conditions: 48 hours, even at 10 nM, GAPDH internal standard, FIG. 6
Protocol: To verify the effect on p16 gene expression, real-time RT-PCR was performed. HeLa cells seeded at 1.5×10^4 cells per well in 24-well plates were cultured for 48 hours in the presence of various concentrations of the polyamides, and RNA was then collected by ISOGEN (Nippon Gene Co., Ltd., Tokyo, Japan). The procedures used followed the manufacturer's instructions. The isolated total RNA was measured for its concentration with Nanodrop (Nanoprop, USA) and used for cDNA synthesis with a Primescript RT reagent kit (TAKARA BIO, Shiga, Japan). The prepared cDNA was confirmed for the expression level of p16 RNA in a Thermal Cycler Dice Real-time System TP-800 (TAKARA BIO, Shiga, Japan) with SYBR premix EX Tag (TAKARA BIO, Shiga, Japan). In this case, the following primers were used in PCR reaction for p16 amplification.
Likewise, for amplification of human endogenous glyceraldehyde-3-phosphate dehydrogenase (GAPDH) used as an internal standard, the following primers were used in PCR reaction.

SMILES: CN(C)CCCNC(=O)CCNC(=O)c1cc(NC(=O)c2nc(NC(=O)c3nc(NC(=O)CCNC(=O)c4cc(NC(=O)c5nc(NC(=O)CCCNC(=O)c6cc(NC(=O)c7nc(NC(=O)CCNC(=O)c8cc(NC(=O)c9cc(NC(=O)c%10nc(NC(=O)CCNC(=O)CCNC(=O)c%11ccc(NC(=O)CCCCCCC(=O)NO)cc%11)cn%10C)cn9C)cn8C)cn7C)cn6C)cn5C)cn4C)cn3C)cn2C)cn1C [SAHA+p16 PIP, SAHA-ββImPyPyβImPyγImPyβImImPyβDp]
- acetylation of histone H3 lysine 9 in the genomic region of the LARP1 gene [1]: enhanced acetylation
- enhancement of histone H3 lysine 9 acetylation in the LARP1 genomic region compared to SAHA alone or SAHA+non-targeting PIP [1]: about 2.5 fold
- suppression of LOVO cell proliferation at 100 nM ([2]; 100 nM, FIG. 4): not suppressed
- inhibition of LOVO cell proliferation ([2]; WST-8, FIG. 4): inhibit proliferation
- expression level of p16 at the transcription level [3]: significant increase
